Results on 15 molecules are retold here after patent publication US11981658B2, “Substituted aminopyridine compounds as EGFR inhibitors” (YUHAN CORPORATION, priority 2021, dated 2024).

Read-outs that look alike come from different tables or passages of the source.

Test [1] addresses EGFR Del19/T790M/C797S (Homo sapiens, UniProt P00533, C797S/DEL746-750/T790M). Put plainly: Biochemical EGFR kinase inhibition assay (Lance Ultra TR-FRET), triple mutant del19/T790M/C797S. Here is the method:
(§1) Biochemical EGFR kinase assays were conducted using Lance Ultra time-resolved fluorescence resonance energy transfer (TR-FRET) technology from Perkin-Elmer. Compounds of the invention were initially diluted to 20 mM in 100% DMSO for storage and made into kinase buffer solution to create a compound concentration ranging from 0.003 μM and 10 μM.
(§2) Each kinase reactions were incubated at room temperature for 1 hour and then stopped by the addition of 4 μL of stop solution (10 mM EDTA). The specific Europium-labeled-anti-phosphopeptide antibody (PerkinElmer, AD0069) diluted in LANCE detection buffer was then added to a final concentration of 2 nM. After 60 minutes incubation at room temperature the LANCE signal was measured on an EnVision Multilabel Reader (Perkin-Elmer). Excitation wavelength was set at 320 nm and emission monitored at 615 nm (donor) and 665 nm (acceptor). The IC50 values were determined using GraphPad prism software (GraphPad Software, Inc., San Diego, CA, USA).
For orientation: In TR-FRET formats the signal depends on donor and acceptor labels being close together.

Test [2] has as its target EGFR Del19/C797S (Homo sapiens, UniProt P00533, C797S/DEL746-750). Put plainly: Biochemical EGFR kinase inhibition assay (Lance Ultra TR-FRET), double mutant del19/C797S. Here is the method: as §1, §2
Test [3] addresses EGFR L858R/C797S (Homo sapiens, UniProt P00533, C797S/L858R). Put plainly: Biochemical EGFR kinase inhibition assay (Lance Ultra TR-FRET), double mutant L858R/C797S. How it is done:
as §1, §2

Test [4] addresses EGFR wildtype (WT) (Homo sapiens, UniProt P00533). Kind of test: Biochemical EGFR kinase inhibition assay (Lance Ultra TR-FRET), wildtype. Here is the method:
as §1, §2

The target of test [5] is EGFR L858R/T790M/C797S (Homo sapiens, UniProt P00533, C797S/L858R/T790M). Put plainly: Biochemical EGFR kinase inhibition assay (Lance Ultra TR-FRET), triple mutant L858R/T790M/C797S. Here is the method: as §1, §2
Setting [6] is: ATP at Km, read-out: IC50 Del19/T790M/C797S (nM), Km ATP.
Setting [7] is: IC50 Del19/T790M/C797S (nM), 100 μM ATP.
Where [8] appears, read: ATP at Km, read-out: IC50 Del19/C797S (nM), Km ATP.
The mark [9] stands for this setting: IC50 Del19/C797S (nM), 100 μM ATP.
The mark [10] stands for this setting: IC50 L858R/C797S (nM), 100 μM ATP.
[11] abbreviates: ATP at Km, read-out: IC50 WT (nM), Km ATP.
The mark [12] stands for this setting: Km ATP, read-out: IC50 Del19/T790M/C797S (nM) Km ATP.
The mark [13] stands for this setting: Km ATP, read-out: IC50 L858R/T790M/C797S (nM) Km ATP.
[14] abbreviates: Km ATP, read-out: IC50 Del19/C797S (nM) Km ATP.
[15] abbreviates: Km ATP, read-out: IC50 WT (nM) Km ATP.
Where [16] appears, read: IC50 L858R/T790M/C797S (nM), 100 μM ATP.

Chain of EGFR wildtype (WT) (P00533 25-1210): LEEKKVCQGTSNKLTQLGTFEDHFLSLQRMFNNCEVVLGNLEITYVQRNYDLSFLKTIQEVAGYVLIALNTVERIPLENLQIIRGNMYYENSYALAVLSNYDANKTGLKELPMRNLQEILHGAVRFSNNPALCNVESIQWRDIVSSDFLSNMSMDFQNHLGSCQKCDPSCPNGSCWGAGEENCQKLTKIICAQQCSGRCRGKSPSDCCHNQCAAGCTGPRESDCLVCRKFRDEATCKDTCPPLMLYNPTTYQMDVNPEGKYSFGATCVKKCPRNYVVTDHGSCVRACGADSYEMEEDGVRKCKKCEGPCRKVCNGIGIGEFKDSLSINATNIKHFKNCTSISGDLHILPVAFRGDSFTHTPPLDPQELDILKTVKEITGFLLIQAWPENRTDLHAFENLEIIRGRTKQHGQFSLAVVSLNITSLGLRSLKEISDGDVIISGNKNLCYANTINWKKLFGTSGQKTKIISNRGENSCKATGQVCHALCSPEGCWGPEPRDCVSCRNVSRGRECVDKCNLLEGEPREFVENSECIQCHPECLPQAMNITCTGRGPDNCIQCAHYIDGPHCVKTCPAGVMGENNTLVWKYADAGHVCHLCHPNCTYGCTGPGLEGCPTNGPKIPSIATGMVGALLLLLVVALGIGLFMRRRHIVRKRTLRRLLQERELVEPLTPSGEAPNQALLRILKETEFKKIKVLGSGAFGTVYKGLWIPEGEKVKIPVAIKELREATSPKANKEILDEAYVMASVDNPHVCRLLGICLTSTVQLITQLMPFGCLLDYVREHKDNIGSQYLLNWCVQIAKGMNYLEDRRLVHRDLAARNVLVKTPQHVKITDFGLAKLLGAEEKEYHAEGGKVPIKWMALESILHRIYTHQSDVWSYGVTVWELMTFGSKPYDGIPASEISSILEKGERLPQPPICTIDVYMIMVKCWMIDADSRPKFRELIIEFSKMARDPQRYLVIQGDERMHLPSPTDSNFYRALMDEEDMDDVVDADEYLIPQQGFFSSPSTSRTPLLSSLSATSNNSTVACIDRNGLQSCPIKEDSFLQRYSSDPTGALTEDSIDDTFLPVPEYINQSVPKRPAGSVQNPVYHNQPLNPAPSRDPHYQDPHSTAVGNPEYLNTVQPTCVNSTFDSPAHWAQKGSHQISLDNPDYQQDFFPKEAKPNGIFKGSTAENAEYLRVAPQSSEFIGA
Chain of EGFR L858R/C797S (P00533 25-1210 C797S/L858R): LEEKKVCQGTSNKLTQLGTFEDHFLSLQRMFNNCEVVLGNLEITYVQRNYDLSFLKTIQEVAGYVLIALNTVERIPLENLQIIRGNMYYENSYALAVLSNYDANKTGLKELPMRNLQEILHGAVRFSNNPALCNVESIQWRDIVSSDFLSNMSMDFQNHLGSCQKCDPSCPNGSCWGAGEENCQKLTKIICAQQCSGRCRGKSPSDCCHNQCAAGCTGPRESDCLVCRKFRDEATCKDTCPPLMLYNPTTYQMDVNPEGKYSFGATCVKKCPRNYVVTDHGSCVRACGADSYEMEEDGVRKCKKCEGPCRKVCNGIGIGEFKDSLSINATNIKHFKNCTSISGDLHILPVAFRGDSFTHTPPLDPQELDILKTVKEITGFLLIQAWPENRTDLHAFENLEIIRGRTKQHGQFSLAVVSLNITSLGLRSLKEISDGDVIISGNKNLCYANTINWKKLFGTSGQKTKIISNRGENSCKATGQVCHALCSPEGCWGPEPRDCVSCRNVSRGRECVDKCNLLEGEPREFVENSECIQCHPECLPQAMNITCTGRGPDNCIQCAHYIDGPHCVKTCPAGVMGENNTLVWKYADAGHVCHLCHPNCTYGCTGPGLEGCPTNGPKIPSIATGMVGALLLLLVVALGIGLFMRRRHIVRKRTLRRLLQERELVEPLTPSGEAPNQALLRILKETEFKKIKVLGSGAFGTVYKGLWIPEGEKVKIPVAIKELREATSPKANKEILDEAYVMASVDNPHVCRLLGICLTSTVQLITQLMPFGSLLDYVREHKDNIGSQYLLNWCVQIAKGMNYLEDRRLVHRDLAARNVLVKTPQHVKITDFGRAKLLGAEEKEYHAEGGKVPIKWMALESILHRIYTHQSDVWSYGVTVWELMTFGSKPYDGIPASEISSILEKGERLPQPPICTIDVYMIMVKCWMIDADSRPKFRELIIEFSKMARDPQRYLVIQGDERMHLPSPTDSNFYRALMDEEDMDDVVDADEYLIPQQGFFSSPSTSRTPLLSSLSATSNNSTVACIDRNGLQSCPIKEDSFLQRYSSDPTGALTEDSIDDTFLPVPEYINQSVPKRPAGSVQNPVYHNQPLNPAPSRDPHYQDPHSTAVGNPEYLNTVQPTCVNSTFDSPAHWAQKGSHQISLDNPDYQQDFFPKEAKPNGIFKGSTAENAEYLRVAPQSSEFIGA
Chain of EGFR L858R/T790M/C797S (P00533 25-1210 T790M/C797S/L858R): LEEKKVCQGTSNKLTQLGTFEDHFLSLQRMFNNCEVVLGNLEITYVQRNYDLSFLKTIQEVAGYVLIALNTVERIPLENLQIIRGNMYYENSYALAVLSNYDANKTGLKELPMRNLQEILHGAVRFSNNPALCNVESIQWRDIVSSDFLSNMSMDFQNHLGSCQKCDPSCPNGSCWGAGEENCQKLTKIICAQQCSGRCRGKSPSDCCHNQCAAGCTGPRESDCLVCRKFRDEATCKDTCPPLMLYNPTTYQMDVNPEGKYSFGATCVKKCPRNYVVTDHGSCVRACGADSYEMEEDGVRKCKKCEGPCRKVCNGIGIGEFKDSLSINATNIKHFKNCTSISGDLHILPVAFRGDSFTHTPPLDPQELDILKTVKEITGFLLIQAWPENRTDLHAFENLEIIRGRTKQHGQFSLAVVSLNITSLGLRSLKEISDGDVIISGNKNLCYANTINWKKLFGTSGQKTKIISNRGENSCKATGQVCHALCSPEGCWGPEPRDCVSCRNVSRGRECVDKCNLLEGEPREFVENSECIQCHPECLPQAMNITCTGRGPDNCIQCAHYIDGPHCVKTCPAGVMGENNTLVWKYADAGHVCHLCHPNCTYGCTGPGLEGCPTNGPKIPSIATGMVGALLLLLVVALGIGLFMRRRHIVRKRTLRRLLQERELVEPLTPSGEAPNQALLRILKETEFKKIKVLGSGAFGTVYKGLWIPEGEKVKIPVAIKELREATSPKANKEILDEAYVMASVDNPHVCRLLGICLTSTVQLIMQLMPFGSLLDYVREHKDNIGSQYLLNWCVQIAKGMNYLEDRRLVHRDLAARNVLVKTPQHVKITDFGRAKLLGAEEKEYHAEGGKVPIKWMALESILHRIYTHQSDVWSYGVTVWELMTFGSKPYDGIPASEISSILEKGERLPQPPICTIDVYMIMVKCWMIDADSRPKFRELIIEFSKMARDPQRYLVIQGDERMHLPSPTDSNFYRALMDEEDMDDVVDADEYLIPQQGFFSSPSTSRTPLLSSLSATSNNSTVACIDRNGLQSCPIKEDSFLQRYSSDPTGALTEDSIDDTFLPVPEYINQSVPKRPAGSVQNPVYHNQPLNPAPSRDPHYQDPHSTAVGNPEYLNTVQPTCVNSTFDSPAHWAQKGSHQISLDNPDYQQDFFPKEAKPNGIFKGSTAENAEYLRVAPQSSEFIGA
Chain of EGFR Del19/T790M/C797S (P00533 with tags, fused parts or gaps DEL746-750/T790M/C797S): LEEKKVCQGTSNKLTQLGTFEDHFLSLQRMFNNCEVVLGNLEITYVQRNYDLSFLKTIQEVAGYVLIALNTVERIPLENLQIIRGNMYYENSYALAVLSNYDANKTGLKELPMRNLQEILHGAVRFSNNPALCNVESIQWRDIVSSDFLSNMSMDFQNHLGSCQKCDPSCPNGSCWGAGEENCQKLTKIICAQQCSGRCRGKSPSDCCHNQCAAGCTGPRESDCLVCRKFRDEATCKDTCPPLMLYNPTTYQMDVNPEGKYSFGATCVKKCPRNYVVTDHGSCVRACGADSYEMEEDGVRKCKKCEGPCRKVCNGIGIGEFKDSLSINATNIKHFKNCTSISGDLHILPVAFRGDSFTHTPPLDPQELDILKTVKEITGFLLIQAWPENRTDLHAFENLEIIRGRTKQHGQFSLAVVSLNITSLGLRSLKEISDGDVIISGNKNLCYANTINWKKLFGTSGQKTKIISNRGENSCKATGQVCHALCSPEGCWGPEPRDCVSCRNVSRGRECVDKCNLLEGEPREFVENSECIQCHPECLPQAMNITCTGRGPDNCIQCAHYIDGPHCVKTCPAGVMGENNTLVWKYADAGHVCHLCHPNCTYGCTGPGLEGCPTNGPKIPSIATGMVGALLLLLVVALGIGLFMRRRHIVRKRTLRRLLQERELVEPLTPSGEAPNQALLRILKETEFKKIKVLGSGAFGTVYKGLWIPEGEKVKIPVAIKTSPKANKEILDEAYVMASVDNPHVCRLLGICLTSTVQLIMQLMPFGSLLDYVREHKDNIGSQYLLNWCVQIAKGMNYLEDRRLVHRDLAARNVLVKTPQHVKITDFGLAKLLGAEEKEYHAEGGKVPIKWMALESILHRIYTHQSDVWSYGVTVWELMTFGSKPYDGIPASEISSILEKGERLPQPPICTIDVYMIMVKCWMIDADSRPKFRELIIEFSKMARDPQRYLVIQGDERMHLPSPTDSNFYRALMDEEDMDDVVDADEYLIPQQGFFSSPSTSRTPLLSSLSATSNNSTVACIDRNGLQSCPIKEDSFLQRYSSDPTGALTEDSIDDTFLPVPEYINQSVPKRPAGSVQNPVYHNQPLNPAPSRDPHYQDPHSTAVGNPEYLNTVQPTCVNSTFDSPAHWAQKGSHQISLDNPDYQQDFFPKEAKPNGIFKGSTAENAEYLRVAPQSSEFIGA

For the molecule `CC(C)Nc1cc(Nc2ccnc(-c3cnn(S(=O)(=O)C4CC4)c3)n2)ncc1C#CCCCNC(=O)N1CCOCC1` [Example 207, N-(5-(6-((2-(1-(Cyclopropylsulfonyl)-1H-pyrazol-4-yl)pyrimidin-4-yl)amino)-4-(isopropylamino)pyridin-3-yl)pent-4-yn-1-yl)morpholine-4-carboxamide], the IC50 in test [1] (setting [6]) was 2.1 nM; in test [1] (setting [7]), 2.9 nM; in test [2] (setting [8]) it was 29.1 nM; in test [2] (setting [9]) it was 76.4 nM; in test [3] (setting [10]) it was 120 nM; in test [4] (setting [11]) it was 56 nM. For the same molecule, the IC50 in test [4] (IC50 WT (nM), 100 μM ATP) was over 10000 nM.

For the molecule `Cn1cc(C#Cc2cnc(Nc3ccnc(-c4cnn(S(=O)(=O)C5CC5)c4)n3)cc2-c2cnn(C)c2)cn1` [Example 233, 2-(1-(Cyclopropylsulfonyl)-1H-pyrazol-4-yl)-N-(4-(1-methyl-1H-pyrazol-4-yl)-5-((1-methyl-1H-pyrazol-4-yl)ethynyl)pyridin-2-yl)pyrimidin-4-amine], the IC50 was found to be 4.5 nM in test [1] (setting [12]), 15.5 nM in test [5] (setting [13]), 299 nM in test [2] (setting [14]) and 1340 nM in test [4] (setting [15]).

For the molecule `Cc1nc(C#Cc2cnc(Nc3ccnc(-c4cnn(S(=O)(=O)C5CC5)c4)n3)cc2N[C@H]2CC[C@H](O)C2)cs1` [Example 222, (1 S,3S)-3-((2-((2-(1-(Cyclopropylsulfonyl)-1H-pyrazol-4-yl)pyrimidin-4-yl)amino)-5-((2-methylthiazol-4-yl)ethynyl)pyridin-4-yl)amino)cyclopentan-1-ol], the IC50 is 5.2 nM in test [1] (setting [7]); 12.2 nM in test [5] (setting [16]); 197 nM in test [2] (setting [9]); over 10000 nM in test [4] (IC50 WT (nM), 100 μM ATP).

`CCC(C)Nc1cc(Nc2ccnc(-c3cnn(S(=O)(=O)C4CC4)c3)n2)ncc1C#Cc1cnn(C)c1` (stereo not shown) [Example 24, N^4-(sec-Butyl)-N^2-(2-(1-(cyclopropylsulfonyl)-1H-pyrazol-4-yl)pyrimidin-4-yl)-5-((1-methyl-1H-pyrazol-4-yl)ethynyl)pyridine-2,4-diamine]: the IC50 turned out to be 2.7 nM in test [1] (setting [12]), 4.4 nM in test [5] (setting [13]), 32.9 nM in test [2] (setting [14]) and 462 nM in test [4] (setting [15]).

For the molecule `CC(C)Nc1cc(Nc2ccnc(-c3cnn(S(=O)(=O)C4CC4)c3)n2)ncc1C#CCCCC(=O)N1CCOCC1` [Example 208, 6-(6-((2-(1-(Cyclopropylsulfonyl)-1H-pyrazol-4-yl)pyrimidin-4-yl)amino)-4-(isopropylamino)pyridin-3-yl)-1-morpholinohex-5-yn-1-one], the IC50 was 5.1 nM in test [1] (setting [6]); 3.5 nM in test [1] (setting [7]); 8.1 nM in test [5] (setting [16]); 56 nM in test [2] (setting [8]); 120 nM in test [2] (setting [9]); 107 nM in test [4] (setting [11]). In test [4] (IC50 WT (nM), 100 μM ATP), the IC50 is over 10000 nM.

For `COCCC#Cc1cnc(Nc2ccnc(-c3cnn(S(=O)(=O)C4CC4)c3)n2)cc1NC(C)C` [Example 22, N^2-(2-(1-(Cyclopropylsulfonyl)-1H-pyrazol-4-yl)pyrimidin-4-yl)-N^4-isopropyl-5-(4-methoxybut-1-yn-1-yl)pyridine-2,4-diamine], the IC50 turned out to be 2.8 nM in test [1] (setting [12]), 5.4 nM in test [5] (setting [13]), 122 nM in test [2] (setting [14]) and 630 nM in test [4] (setting [15]).

Regarding `CC(C)Nc1cc(Nc2ccnc(-c3cnn(S(=O)(=O)C4CC4)c3)n2)ncc1C#Cc1cnn(C)c1` [Example 18, N^2-(2-(1-(Cyclopropylsulfonyl)-1H-pyrazol-4-yl)pyrimidin-4-yl)-N^4-isopropyl-5-((1-methyl-1H-pyrazol-4-yl)ethynyl)pyridine-2,4-diamine], the IC50 was 1.6 nM in test [1] (setting [7]); 2.2 nM in test [1] (setting [12]); 1.1 nM in test [5] (setting [16]); 3.3 nM in test [5] (setting [13]); 47.3 nM in test [2] (setting [9]); 35.5 nM in test [2] (setting [14]). The IC50 in test [4] (IC50 WT (nM), 100 μM ATP) is over 10000 nM; in test [4] (setting [15]), 213 nM.

For `CC(C)Oc1cc(Nc2ccnc(-c3cnn(S(=O)(=O)C4CC4)c3)n2)ncc1C#Cc1cnn(C)c1` [Example 54, 2-(1-(Cyclopropylsulfonyl)-1H-pyrazol-4-yl)-N-(4-isopropoxy-5-((1-methyl-1H-pyrazol-4-yl)ethynyl)pyridin-2-yl)pyrimidin-4-amine], the IC50 in test [1] (setting [12]) worked out at 6.1 nM; in test [5] (setting [13]), 13.2 nM; in test [2] (setting [14]), 138 nM; in test [4] (setting [15]) it was 2580 nM.

Turning to `Cc1nc(C#Cc2cnc(Nc3ccnc(-c4cnn(S(=O)(=O)C5CC5)c4)n3)cc2NC(C)C)cs1` [Example 199, N^2-(2-(1-(Cyclopropylsulfonyl)-1H-pyrazol-4-yl)pyrimidin-4-yl)-N^4-isopropyl-5-((2-methylthiazol-4-yl)ethynyl)pyridine-2,4-diamine], the IC50 in test [1] (setting [6]) was 5.7 nM; in test [5] (ATP at Km, read-out: IC50 L858R/T790M/C797S (nM), Km ATP), 3.4 nM; in test [2] (setting [8]), 82 nM; in test [3] (ATP at Km, read-out: IC50 L858R/C797S (nM), Km ATP), 414 nM.

Consider `CC(C)Nc1cc(Nc2ccnc(-c3cnn(S(=O)(=O)C4CC4)c3)n2)ncc1C#Cc1cccnc1` [Example 21, N^2-(2-(1-(Cyclopropylsulfonyl)-1H-pyrazol-4-yl)pyrimidin-4-yl)-N^4-isopropyl-5-(pyridin-3-ylethynyl)pyridine-2,4-diamine], for which the IC50 in test [1] (setting [12]) amounted to 0.8 nM; in test [5] (setting [13]) it was 1.8 nM; in test [2] (setting [14]), 34.3 nM; in test [4] (setting [15]), 374 nM.

On to `CC(C)Nc1cc(Nc2ccnc(-c3cnn(S(=O)(=O)C4CC4)c3)n2)ncc1C#CCCCCC(=O)N1CCOCC1` [Example 210, 7-(6-((2-(1-(Cyclopropylsulfonyl)-1H-pyrazol-4-yl)pyrimidin-4-yl)amino)-4-(isopropylamino)pyridin-3-yl)-1-morpholinohept-6-yn-1-one], for which the IC50 is 3.4 nM in test [1] (setting [7]); 143 nM in test [2] (setting [9]); 157 nM in test [3] (setting [10]); over 10000 nM in test [4] (IC50 WT (nM), 100 μM ATP).

As to `CCC(C)Oc1cc(Nc2ccnc(-c3cnn(S(=O)(=O)C4CC4)c3)n2)ncc1C#Cc1cnn(C)c1` (stereo not shown) [Example 56, N-(4-(sec-Butoxy)-5-((1-methyl-1H-pyrazol-4-yl)ethynyl)pyridin-2-yl)-2-(1-(cyclopropylsulfonyl)-1H-pyrazol-4-yl)pyrimidin-4-amine], the IC50 was 7.6 nM in test [1] (setting [12]), 24.2 nM in test [5] (setting [13]), 291 nM in test [2] (setting [14]) and over 10000 nM in test [4] (setting [15]).

`O=S(=O)(C1CC1)n1cc(-c2nccc(Nc3cc(N4CCN(CCO)CC4)c(C#Cc4cnn(CCF)c4)cn3)n2)cn1` [Example 16, 2-(4-(2-((2-(1-(Cyclopropylsulfonyl)-1H-pyrazol-4-yl)pyrimidin-4-yl)amino)-5-((1-(2-fluoroethyl)-1H-pyrazol-4-yl)ethynyl)pyridin-4-yl)piperazin-1-yl)ethan-1-ol]: the IC50 in test [1] (setting [7]) is 3.3 nM; in test [1] (setting [12]), 4.5 nM; in test [5] (setting [16]), 10.1 nM; in test [2] (setting [9]) it was 165 nM; in test [2] (setting [14]) it was 68.6 nM; in test [4] (IC50 WT (nM), 100 μM ATP) it was over 10000 nM. In addition, the IC50 in test [4] (setting [15]) is 145 nM.

`Cn1cc(C#Cc2cnc(Nc3ccnc(-c4cnn(S(=O)(=O)C5CC5)c4)n3)cc2-c2cnn(C3CC3)c2)cn1` [Example 235, N-(4-(1-Cyclopropyl-1H-pyrazol-4-yl)-5-((1-methyl-1H-pyrazol-4-yl)ethynyl)pyridin-2-yl)-2-(1-(cyclopropylsulfonyl)-1H-pyrazol-4-yl)pyrimidin-4-amine]: the IC50 amounted to 4.7 nM in test [1] (setting [12]), 13.2 nM in test [5] (setting [13]), 311 nM in test [2] (setting [14]) and 2220 nM in test [4] (setting [15]).

Consider `CCC(C)Nc1cc(Nc2ccnc(-c3cnn(S(=O)(=O)C4CC4)c3)n2)ncc1C#Cc1cnn(CCF)c1` (stereo not shown) [Example 26, N^4-(sec-Butyl)-N^2-(2-(1-(cyclopropylsulfonyl)-1H-pyrazol-4-yl)pyrimidin-4-yl)-5-((1-(2-fluoroethyl)-1H-pyrazol-4-yl)ethynyl)pyridine-2,4-diamine], for which the IC50 in test [1] (setting [12]) is 3.1 nM; in test [5] (setting [13]) it was 3.6 nM; in test [2] (setting [14]), 58.1 nM; in test [4] (setting [15]), 545 nM.
